Source: ChEMBL document CHEMBL1201862, “PubChem BioAssay data set” (2004)
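Cultured in 96-well plates, cells were exposed to test compound for 48 hours across five concentrations. At the GI50, growth is halved.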 Calls of active or inactive are those of the source. No stated cut-off is given here; in the data, active = GI50 up to about 1.1 µM and inactive = higher.

Assays:
Test in all cases: growth of human tumour cells (NCI), 48 h
[1] = test system: DMS-114
[2] = test system: HOP-18
[3] = test system: KM-20L2
[4] = test system: LXFL 529
[5] = test system: M19-MEL
[6] = test system: SNB-78
[7] = test system: Hs-578T
[8] = test system: RXF 631
[9] = test system: XF498

`c1ccc(CN2CCCCC(Sc3ccccc3)CC2)cc1` (centres undefined) was tested, and the GI50 [1] was 22.4 µM (inactive), the GI50 [2] was 42.7 µM (inactive) and the GI50 [3] was 26.4 µM (inactive). For the same compound, the GI50 [4] was 17.7 µM (inactive), the GI50 [5] was 3.1 µM (inactive) and the GI50 [6] was 27.2 µM (inactive).
For `CCOC(=O)C1=C(C(=O)OCC)SC2(S1)C(C(=O)OCC)=C(C(=O)OCC)Sc1c2ssc1=O`, the GI50 [7] was 1.97 µM (inactive).
For `O=c1[nH]nc(-c2ccccc2)n1/N=C/c1ccncc1`, the GI50 [7] was 26.2 µM (inactive).
For `COC(=O)c1ccccc1C1=C([N+](=O)[O-])C(c2cccc(Br)c2)C(C#N)=C(N)O1` (centres undefined), the GI50 [7] was 18.3 µM (inactive).
For `CCOC(=O)c1sc2c(c1OC(=O)c1ccccc1)c(=O)n(-c1ccccc1)c(=S)n2-c1ccccc1`, the GI50 [7] was 23.6 µM (inactive).
For `Cc1ccc(S(=O)(=O)Nn2c(S)c(C#N)c(-c3ccc([N+](=O)[O-])cc3)c(C#N)c2=O)cc1`, the GI50 [7] was 32.4 µM (inactive).
In the case of `N=C1NC2(O)C(=O)c3ccccc3C2(O)N1` (centres undefined), the GI50 [1] is reported as > 100 µM (inactive), the GI50 [2] is reported as > 100 µM (inactive) and the GI50 [3] is reported as > 100 µM (inactive). The GI50 [4] was > 100 µM (inactive), the GI50 [8] was > 100 µM (inactive) and the GI50 [6] was > 100 µM (inactive).
In the case of `Nc1cnc(Nc2cccc3ccccc23)o1`, the GI50 [7] is reported as > 10 µM (inactive).
With `COC1C(OC(=O)c2ccc(C)[nH]2)C(O)C(Oc2ccc3c(O)c(NC(=O)c4c[nH]c(C(=O)Nc5c(O)c6ccc(OC7OC(C)(C)C(OC)C(OC(=O)c8ccc(C)[nH]8)C7O)c(C)c6oc5=O)c4C)c(=O)oc3c2C)OC1(C)C` (centres undefined) the GI50 [1] was 2.02 µM (inactive), the GI50 [2] was 0.596 µM (active) and the GI50 [3] was 2.4 µM (inactive). For the same compound, the GI50 [4] was 1.07 µM (active), the GI50 [5] was 1.64 µM (inactive) and the GI50 [6] was 1.56 µM (inactive). The GI50 [9] was 2.18 µM (inactive).
With `COc1cc(CC2C(=O)OCC2Cc2ccc(OC)c(OC)c2)ccc1O` (centres undefined) the GI50 [7] was > 100 µM (inactive).
With `CO[C@H]1[C@@H](O)[C@@H](C)O[C@@H](O[C@H]2CC[C@@]3(C)[C@H](CC[C@@H]4[C@@H]3CC[C@]3(C)[C@@H](C5=CC(=O)OC5)CC[C@]43O)C2)[C@@H]1O` [ODOROSIDE H] the GI50 [7] was 0.00454 µM (active).
In the case of `O=C1C2CCCCC2C(=O)N1n1c(Cc2ccc(Cl)cc2)n[nH]c1=O` (centres undefined), the GI50 [7] is reported as > 100 µM (inactive).
For `O=C(c1ccc(Cl)cc1)N(C(=S)N1CCN(c2ccccn2)CC1)c1ccccc1`, the GI50 [1] was 42.5 µM (inactive), the GI50 [2] was > 100 µM (inactive) and the GI50 [3] was > 100 µM (inactive). For the same compound, the GI50 [4] was 55.2 µM (inactive), the GI50 [5] was > 100 µM (inactive) and the GI50 [6] was > 100 µM (inactive).
For `CCOC(=O)C(NC(=O)Nc1ccc(Cl)c(Cl)c1)C(F)(F)F` (centres undefined), the GI50 [7] was 40.5 µM (inactive).
`C/C(=C\c1ccc(Cl)c(Cl)c1)[N+](=O)[O-]` was tested, and the GI50 [7] was 3.24 µM (inactive).
In the case of `CC(C)[C@@H]1CC[C@@H](C)C[C@H]1OC(=O)c1c2n(c3ccccc13)C[C@H]1OC(C)(C)O[C@@H]21`, the GI50 [7] is reported as 16.7 µM (inactive).
In the case of `CC(=O)NCCC1CN(C(=O)/C=C/I)c2ccccc21` (centres undefined), the GI50 [7] is reported as 9.66 µM (inactive).
`CC(=O)O[C@H]1CCC2[C@@H]3CCC4c5nonc5CC[C@]4(C)C3CC[C@@]21C` (some centres undefined) was tested, and the GI50 [1] was > 10 µM (inactive), the GI50 [2] was > 10 µM (inactive) and the GI50 [3] was > 10 µM (inactive). For the same compound, the GI50 [4] was > 10 µM (inactive), the GI50 [5] was > 10 µM (inactive) and the GI50 [6] was > 10 µM (inactive).
For `Cc1cc(S(=O)(=O)Nc2n[nH]c(Nc3ccccc3)n2)c(S)cc1Cl`, the GI50 [7] was > 10 µM (inactive).
With `Cn1c(=O)nc2n(CCO)ccnc-2c1=O` the GI50 [7] was 91.4 µM (inactive).
For `O=C1NC(=S)NC(=O)C1=Cc1cccc2cc3ccccc3cc12`, the GI50 [7] was 2.97 µM (inactive).
For `COc1ccc(/C(C)=N/NC(=O)c2ccncc2)c(OC)c1`, the GI50 [7] was > 10 µM (inactive).
`N#CCOc1ccc(/C=C/C(=O)c2ccc(Cl)cc2)cc1` was tested, and the GI50 [7] was 18.2 µM (inactive).
With `CC(C)(C)OC(=O)NC(CCCCNC(=O)OCc1ccccc1)C(=O)NC(CCCCNC(=O)OCc1ccccc1)C(=O)ON1C(=O)CCC1=O` (centres undefined) the GI50 [7] was > 100 µM (inactive).
`Cc1c(O)c(=O)ccn1CCc1c[nH]c2ccccc12` was tested, and the GI50 [7] was 11.7 µM (inactive).
With `CCOC(=O)c1[nH]c(Br)c(-c2ccc(OC)c(OC)c2)c1Br` the GI50 [7] was 0.0369 µM (active).
In the case of `C/C(Nc1ccc(Cl)cc1Cl)=C1/CCOC1=O`, the GI50 [7] is reported as 33.6 µM (inactive).
For `COc1ccc(Cl)cc1NC(=O)O/N=C(\Cl)C(C)C`, the GI50 [7] was 23.7 µM (inactive).
For `N#C/C(=C1\OC(=N)C(c2ccc(Cl)cc2Cl)C1=O)c1ccc(Cl)cc1Cl` (centres undefined), the GI50 [1] was > 100 µM (inactive), the GI50 [3] was > 100 µM (inactive) and the GI50 [4] was > 100 µM (inactive). For the same compound, the GI50 [5] was > 100 µM (inactive), the GI50 [8] was > 100 µM (inactive) and the GI50 [6] was > 100 µM (inactive). The GI50 [9] was 86.9 µM (inactive).
In the case of `O=c1[nH][nH]c(=O)[nH]1`, the GI50 [3] is reported as > 100 µM (inactive), the GI50 [5] is reported as > 100 µM (inactive) and the GI50 [6] is reported as > 100 µM (inactive). For the same compound, the GI50 [9] was > 100 µM (inactive).
`C[C@]12CC(C#N)C(=O)C(O)=C1CC[C@@H]1C2CC[C@@]2(C)C1CC[C@@H]2O` (some centres undefined) was tested, and the GI50 [1] was 49 µM (inactive), the GI50 [3] was 95.5 µM (inactive) and the GI50 [4] was 65.5 µM (inactive). The GI50 [6] was 65.3 µM (inactive) and the GI50 [9] was 18.8 µM (inactive).
With `COc1ccc(C2=NN(c3ccccc3)C[N+](c3ccc(C)cc3)=N2)cc1` the GI50 [1] was 24.7 µM (inactive), the GI50 [3] was 59 µM (inactive) and the GI50 [4] was 16.3 µM (inactive). The GI50 [5] was 29.9 µM (inactive), the GI50 [6] was 27.9 µM (inactive) and the GI50 [9] was 25.3 µM (inactive).
With `OCCNc1ncnc2c1ncn2C1OC(CO)C(O)C1O` (centres undefined) the GI50 [7] was 48 µM (inactive).
For `CC1=Nc2ccccc2/C1=C\c1c(C)[nH]c2ccccc12`, the GI50 [7] was 8.63 µM (inactive).
`C=CCC(O)c1cc(OC)ccc1OC` (centres undefined) was tested, and the GI50 [1] was > 100 µM (inactive), the GI50 [4] was > 100 µM (inactive) and the GI50 [5] was > 100 µM (inactive). The GI50 [8] was > 100 µM (inactive) and the GI50 [9] was > 100 µM (inactive).
`O/N=C(/CC(O)(C(F)(F)F)C(F)(F)F)c1ccccc1` was tested, and the GI50 [7] was > 10 µM (inactive).
